From publication PMC3483484 (The Protein Journal, 2012)

How the values were obtained:
[1] = parameters: method as in earlier work; conditions: cited from earlier work
[2] = target: T1, human serum albumin (HSA) (Homo sapiens, UniProt P02768); assay: Equilibrium dialysis: individual and simultaneous binding (displacement) of 6-MP and site I markers to HSA
T1 construct: Human serum albumin (HSA), fraction V, crystallized and lyophilized; purchased Biomed (Lublin, Poland)
Protocol: Equilibrium dialysis experiment was performed with bags of 5 cm length made from cellulose tubing, 25 mm diameter when inflated (Dialysis Tubing Cellulose Membranes with molecular weight cut-off of 12 kDa, Sigma Aldrich Co). […] The tubes were closed with parafilm, and were stirred constantly at 20 rotations per minute, at 23 °C. A solution of drug(s) in the compartment B and a solution of albumin in the compartment A were allowed to equilibrate. […] The volumes of the solutions in two compartments remained constant during the dialysis procedure and were not corrected. […] Dialysis with each ligand or mixture of ligands was performed in fivefold and the average value of C b was used as binding data. Protein concentration was 1 × 10^−5 M and ligands concentration was 0.8 × 10^−5 M.
The free-ligands concentrations in compartment B at the beginning of the dialysis and after equilibrium were determined by HPLC. […] A column of LiChrospher 100 RP-18 (5 μm in 4 × 250 mm) (Merck KGaA) was used as the stationary phase. […] All solvents were filtered and degassed prior to use. The injection volume was 50 μL in all the cases. The free ligand concentration was determined using a calibration curve obtained from the concentration of dialyzed ligand in the absence of albumin.
The bound ligand concentration (Cb) was calculated by estimation of free-ligand concentration (Cf) according to the equation [57]:1 [drawing 3] where CL(b) was concentration of bound ligand, CL(f) was final concentration of ligand in buffer compartment and CL(0) was starting concentration of ligand (total ligand concentration before equilibrium dialysis).
The percent binding before and after displacement was compared by using a two-way analysis of variance for balanced data. The confidence intervals based on the residual variance were computed for each pairs of bound fraction before and after displacement.

[3] = test system: HSA; conditions: data from the literature ref 32; cited from earlier work

T1 sequence (P02768 25-609): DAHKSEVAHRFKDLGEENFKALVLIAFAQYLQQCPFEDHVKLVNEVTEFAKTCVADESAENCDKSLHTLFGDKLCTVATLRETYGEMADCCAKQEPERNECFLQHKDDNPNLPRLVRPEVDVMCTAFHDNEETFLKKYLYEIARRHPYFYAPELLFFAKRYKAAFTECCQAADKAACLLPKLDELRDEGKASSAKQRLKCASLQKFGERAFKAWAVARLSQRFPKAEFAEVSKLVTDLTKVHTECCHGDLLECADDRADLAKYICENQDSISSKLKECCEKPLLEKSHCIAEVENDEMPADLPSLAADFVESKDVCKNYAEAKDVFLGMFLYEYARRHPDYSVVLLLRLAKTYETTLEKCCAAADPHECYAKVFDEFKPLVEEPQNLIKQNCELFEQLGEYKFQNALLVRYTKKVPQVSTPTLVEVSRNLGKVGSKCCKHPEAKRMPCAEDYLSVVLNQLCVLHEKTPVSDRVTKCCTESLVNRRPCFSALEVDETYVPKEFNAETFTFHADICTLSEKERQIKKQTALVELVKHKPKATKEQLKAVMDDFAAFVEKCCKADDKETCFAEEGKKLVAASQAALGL

SMILES | bound to serum proteins ([1]; humans, of the administered dose ref 39) | half-life in plasma ([1]; oral dose, humans ref 39) | decrease of free fraction (Δ%) of ABE ([2]; by addition of 6-MP, versus ABE alone, p < 0.05) | Kd ([2]; from fb by Eq. (6), before displacement, HSA 1 × 10^−5 M, read-out: Primary association constant log Kexp^HSA (converted)) | Bound ligand fraction (fb%) before displacement ([2]; individual binding, HSA 1 × 10^−5 M, ligand 0.8 × 10^−5 M, pH 7.4, 23 °C) | Bound ligand fraction (fb%) of site marker after displacement ([2]; simultaneous binding, in presence of 6-MP, HSA 1 × 10^−5 M, ligands 0.8 × 10^−5 M) | Primary association constant log Klit^HSA [3]
Sc1ncnc2nc[nH]c12 [6-MP, 6-Mercaptopurine] | approximately 19% | 20 to 45 min |  |  |  |  | 
CCCCOC(=O)c1ccc(N)cc1 [ABE, n-butyl p-aminobenzoate] |  |  | 3.5% | 17 µM | 37.3 ± 0.7% | 39.5 ± 0.6% | 4.45
